These results are taken from patent publication US5906981A, “Halopropargyl inclusion complexes” (Troy Corporation, priority 1996, dated 1999).

The nature of series [1]: Dissolution in water: stirring in water for 1/2 hour, filtration, recovery of IPBC (Example 2). Format: physicochemical. Particulars: 4 g IPBC in 96 g water, stirred 1/2 hour. The procedure:
Four grams of IPBC were added to 96 g of water and stirred for 1/2 hour. The resulting slurry was filtered off and the filter cake was dried and weighed. […] Approximately 27 g of the lyophilized inclusion complex prepared in Example 1 was added to 73 g water and the mixture was stirred for 1/2 hour. […] Use of the inclusion complex in this manner thus affords approximately 4% solution of IPBC in water, which is a solubility enhancement of approximately 250-300 times.

A short description of series [2]: Thermal decomposition point. Format: physicochemical. The conditions noted are these: pure IPBC or IPBC in the inclusion complex. The procedure: The melting point of pure IPBC is 66-67° C. and its decomposition occurs at about 150-155° C., leading to formation of highly colored by-products. The decomposition point of IPBC in the inclusion complex of Examples 1 and 3 was determined to be about 222-225° C.

Each structure is given as a SMILES string.

`CCCCNC(=O)OCC#CI` [IPBC, 3-iodo-2-propynyl butylcarbamate]: in series [1], the “IPBC recovered in the filter cake” value was “Approximately 98%”. In series [2], the decomposition point was 150-155 °C.
